Assay results published in article PMC9030254, “Target Hopping from Protein Kinases to PXR: Identification of Small-Molecule Protein Kinase Inhibitors as Selective Modulators of Pregnane X Receptor from TüKIC Library” (Cells, 2022).

Key:
Assay in all cases: Kinase profiling
Format in all cases: biochemical
FGFR2 = biological target: T1, FGFR2 (Homo sapiens, UniProt P21802)
T1 construct: purchased ProQinase (Freiburg, Germany)
Description: (§1) The analysis was performed by ProQinase (Freiburg, Germany).

PHKG2 = biological target: T2, PHKG2 (Homo sapiens, UniProt P15735)
T2 construct: purchased ProQinase (Freiburg, Germany)
T2 sequence (P15735 1-406): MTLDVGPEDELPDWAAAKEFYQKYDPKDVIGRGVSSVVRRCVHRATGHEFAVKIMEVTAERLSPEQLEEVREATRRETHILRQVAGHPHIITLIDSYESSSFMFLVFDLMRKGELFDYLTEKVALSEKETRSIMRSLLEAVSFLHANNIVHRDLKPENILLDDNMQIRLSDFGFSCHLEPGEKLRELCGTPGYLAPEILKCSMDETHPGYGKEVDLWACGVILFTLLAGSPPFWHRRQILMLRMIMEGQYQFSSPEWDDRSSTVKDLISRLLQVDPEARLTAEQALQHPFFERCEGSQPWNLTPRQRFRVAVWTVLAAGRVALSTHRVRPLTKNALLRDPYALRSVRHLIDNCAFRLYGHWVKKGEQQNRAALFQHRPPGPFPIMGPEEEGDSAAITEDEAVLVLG
Description: as §1

TLK1 = biological target: T3, TLK1 (Homo sapiens, UniProt Q9UKI8)
T3 construct: purchased ProQinase (Freiburg, Germany)
T3 sequence (Q9UKI8 1-766): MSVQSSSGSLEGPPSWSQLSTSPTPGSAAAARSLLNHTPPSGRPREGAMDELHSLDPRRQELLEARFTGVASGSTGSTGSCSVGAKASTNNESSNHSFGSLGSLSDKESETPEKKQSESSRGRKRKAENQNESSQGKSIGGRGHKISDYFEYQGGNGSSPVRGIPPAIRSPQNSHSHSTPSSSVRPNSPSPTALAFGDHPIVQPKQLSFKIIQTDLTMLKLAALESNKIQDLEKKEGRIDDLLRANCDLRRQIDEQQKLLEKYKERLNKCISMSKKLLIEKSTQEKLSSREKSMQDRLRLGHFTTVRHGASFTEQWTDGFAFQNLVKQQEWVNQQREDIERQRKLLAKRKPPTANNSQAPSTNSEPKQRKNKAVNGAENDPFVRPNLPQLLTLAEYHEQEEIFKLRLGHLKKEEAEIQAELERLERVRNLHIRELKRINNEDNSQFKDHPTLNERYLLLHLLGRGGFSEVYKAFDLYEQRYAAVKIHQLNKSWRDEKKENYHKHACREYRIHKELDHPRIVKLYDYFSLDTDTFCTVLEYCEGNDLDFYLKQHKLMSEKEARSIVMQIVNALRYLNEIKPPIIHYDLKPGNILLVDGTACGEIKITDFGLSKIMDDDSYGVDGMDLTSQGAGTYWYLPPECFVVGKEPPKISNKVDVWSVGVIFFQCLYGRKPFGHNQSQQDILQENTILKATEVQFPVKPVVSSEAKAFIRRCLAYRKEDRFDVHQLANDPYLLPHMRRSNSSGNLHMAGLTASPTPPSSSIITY
Description: as §1

FGFR1 = biological target: T4, FGFR1 (Homo sapiens, UniProt P11362)
T4 construct: purchased ProQinase (Freiburg, Germany)
Description: as §1

EPHA4 = biological target: T5, EPHA4 (Homo sapiens, UniProt P54764)
T5 construct: purchased ProQinase (Freiburg, Germany)
T5 sequence (P54764 20-986): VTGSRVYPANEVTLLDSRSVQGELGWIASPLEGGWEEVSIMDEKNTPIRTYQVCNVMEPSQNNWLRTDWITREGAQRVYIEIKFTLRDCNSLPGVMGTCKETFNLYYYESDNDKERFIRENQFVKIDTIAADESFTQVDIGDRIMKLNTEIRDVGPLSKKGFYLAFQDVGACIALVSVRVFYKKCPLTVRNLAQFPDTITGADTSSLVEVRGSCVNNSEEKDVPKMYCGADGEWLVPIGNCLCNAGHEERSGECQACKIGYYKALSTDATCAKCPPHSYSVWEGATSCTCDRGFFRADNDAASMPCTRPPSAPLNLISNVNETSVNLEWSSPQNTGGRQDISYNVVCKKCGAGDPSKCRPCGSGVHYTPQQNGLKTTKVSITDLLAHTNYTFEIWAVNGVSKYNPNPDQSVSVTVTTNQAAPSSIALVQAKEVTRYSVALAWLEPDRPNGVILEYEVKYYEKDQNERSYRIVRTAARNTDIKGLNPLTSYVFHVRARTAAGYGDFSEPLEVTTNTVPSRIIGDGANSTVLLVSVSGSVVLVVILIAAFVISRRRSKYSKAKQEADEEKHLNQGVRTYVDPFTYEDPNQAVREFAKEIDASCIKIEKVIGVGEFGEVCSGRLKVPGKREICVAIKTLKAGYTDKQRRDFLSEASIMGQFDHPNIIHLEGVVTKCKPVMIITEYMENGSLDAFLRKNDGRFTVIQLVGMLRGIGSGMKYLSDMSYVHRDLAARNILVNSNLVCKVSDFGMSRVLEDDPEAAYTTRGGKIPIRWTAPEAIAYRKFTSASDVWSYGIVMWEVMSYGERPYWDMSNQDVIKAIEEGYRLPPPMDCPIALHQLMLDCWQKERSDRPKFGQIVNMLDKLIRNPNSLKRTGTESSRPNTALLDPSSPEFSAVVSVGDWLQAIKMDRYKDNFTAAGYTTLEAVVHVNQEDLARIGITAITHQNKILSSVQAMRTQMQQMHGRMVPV
Description: as §1

WNK2 = biological target: T6, WNK2 (Homo sapiens, UniProt Q9Y3S1)
T6 construct: purchased ProQinase (Freiburg, Germany)
T6 sequence (Q9Y3S1 whole entry): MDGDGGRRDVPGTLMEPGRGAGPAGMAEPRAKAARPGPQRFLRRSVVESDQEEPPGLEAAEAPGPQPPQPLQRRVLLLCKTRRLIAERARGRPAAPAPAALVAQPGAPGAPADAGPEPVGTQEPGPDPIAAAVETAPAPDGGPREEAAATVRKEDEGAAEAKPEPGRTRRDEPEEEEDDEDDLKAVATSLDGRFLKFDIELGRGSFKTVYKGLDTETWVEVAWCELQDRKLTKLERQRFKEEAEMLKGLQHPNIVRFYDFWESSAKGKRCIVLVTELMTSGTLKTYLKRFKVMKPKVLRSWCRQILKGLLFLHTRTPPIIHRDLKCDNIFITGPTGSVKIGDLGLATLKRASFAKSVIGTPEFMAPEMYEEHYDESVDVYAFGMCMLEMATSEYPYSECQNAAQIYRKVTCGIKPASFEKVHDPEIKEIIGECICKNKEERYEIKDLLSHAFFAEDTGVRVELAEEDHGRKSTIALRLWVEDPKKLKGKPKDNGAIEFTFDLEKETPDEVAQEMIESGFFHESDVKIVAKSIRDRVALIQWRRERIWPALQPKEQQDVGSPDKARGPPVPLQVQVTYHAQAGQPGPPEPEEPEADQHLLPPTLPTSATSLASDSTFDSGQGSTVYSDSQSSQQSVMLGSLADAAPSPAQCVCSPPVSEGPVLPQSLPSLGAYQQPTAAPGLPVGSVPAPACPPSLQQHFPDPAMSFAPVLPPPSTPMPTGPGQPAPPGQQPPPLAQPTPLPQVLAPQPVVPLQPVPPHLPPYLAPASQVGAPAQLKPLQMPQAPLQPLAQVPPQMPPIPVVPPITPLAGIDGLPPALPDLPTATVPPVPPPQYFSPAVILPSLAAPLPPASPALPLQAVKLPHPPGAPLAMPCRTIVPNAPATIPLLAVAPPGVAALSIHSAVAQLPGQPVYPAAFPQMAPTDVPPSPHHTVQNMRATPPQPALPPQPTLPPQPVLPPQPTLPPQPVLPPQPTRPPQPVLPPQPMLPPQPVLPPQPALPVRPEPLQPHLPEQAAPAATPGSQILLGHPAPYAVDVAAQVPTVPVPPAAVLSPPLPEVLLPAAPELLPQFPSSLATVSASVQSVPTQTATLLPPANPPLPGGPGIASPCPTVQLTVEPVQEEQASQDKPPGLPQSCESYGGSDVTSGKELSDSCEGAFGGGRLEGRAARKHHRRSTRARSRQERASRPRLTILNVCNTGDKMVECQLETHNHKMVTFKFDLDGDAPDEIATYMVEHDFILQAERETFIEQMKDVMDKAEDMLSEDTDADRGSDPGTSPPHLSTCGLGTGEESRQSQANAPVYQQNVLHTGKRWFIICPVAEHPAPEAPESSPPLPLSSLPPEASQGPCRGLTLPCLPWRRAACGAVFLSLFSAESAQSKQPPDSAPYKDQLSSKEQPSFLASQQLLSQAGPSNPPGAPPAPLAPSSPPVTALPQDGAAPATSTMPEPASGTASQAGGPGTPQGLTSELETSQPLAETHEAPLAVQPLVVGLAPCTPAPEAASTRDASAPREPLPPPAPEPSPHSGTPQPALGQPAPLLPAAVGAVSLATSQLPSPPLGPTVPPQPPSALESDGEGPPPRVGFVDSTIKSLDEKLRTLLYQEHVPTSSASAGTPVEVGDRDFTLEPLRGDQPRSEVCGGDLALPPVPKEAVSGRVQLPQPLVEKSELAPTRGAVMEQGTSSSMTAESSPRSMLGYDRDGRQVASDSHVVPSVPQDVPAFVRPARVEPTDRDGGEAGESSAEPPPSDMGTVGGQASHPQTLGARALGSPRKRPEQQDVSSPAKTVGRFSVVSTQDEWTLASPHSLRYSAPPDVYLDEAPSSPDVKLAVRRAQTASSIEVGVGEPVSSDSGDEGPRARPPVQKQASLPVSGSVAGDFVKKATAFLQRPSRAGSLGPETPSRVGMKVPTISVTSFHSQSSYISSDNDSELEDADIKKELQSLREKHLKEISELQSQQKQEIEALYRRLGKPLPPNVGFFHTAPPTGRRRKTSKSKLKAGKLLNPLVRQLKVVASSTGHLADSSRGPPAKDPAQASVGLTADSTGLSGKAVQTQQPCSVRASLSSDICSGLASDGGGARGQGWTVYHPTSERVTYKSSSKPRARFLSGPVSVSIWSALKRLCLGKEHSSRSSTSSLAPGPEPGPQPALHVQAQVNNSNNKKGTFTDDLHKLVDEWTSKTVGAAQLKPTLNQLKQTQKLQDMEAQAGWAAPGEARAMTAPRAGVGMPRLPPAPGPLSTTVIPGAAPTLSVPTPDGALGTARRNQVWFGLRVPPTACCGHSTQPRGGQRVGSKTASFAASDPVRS
Description: as §1

PBK = biological target: T7, PBK (Homo sapiens, UniProt Q96KB5)
T7 construct: purchased ProQinase (Freiburg, Germany)
T7 sequence (Q96KB5 1-322): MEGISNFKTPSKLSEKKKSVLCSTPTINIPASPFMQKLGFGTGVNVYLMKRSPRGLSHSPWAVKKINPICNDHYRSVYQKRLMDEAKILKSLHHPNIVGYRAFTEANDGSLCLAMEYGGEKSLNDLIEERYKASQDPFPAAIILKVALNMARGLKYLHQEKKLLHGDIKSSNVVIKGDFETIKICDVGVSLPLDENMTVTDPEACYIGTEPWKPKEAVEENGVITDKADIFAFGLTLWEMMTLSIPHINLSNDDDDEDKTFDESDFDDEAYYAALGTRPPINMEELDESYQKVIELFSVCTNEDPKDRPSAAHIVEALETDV
Description: as §1

PKN3 = biological target: T8, PKN3 (Homo sapiens, UniProt Q6P5Z2)
T8 construct: purchased ProQinase (Freiburg, Germany)
Description: as §1

BTK = biological target: T9, BTK (Homo sapiens, UniProt Q06187)
T9 construct: purchased ProQinase (Freiburg, Germany)
T9 sequence (Q06187 whole entry): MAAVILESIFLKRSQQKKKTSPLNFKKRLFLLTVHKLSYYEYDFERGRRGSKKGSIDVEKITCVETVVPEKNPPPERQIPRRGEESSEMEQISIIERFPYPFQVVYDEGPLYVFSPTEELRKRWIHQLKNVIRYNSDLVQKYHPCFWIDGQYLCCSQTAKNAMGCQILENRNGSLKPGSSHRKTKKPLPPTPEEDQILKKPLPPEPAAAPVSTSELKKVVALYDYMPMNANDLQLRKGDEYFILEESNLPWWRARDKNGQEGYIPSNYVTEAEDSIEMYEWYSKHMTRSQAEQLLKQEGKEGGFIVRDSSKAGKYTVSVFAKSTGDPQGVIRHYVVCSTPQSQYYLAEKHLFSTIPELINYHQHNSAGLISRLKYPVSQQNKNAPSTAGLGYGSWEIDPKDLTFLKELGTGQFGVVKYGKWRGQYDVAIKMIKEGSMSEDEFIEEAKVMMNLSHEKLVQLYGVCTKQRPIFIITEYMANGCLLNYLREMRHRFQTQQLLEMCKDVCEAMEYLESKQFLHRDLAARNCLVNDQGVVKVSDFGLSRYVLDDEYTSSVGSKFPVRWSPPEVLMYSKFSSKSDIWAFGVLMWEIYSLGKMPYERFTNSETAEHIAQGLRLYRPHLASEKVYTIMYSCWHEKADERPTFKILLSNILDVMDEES
Description: as §1

CDK1/CycE1 = biological target: T10, CDK1/CycE1 (Homo sapiens, UniProt P06493)
T10 construct: purchased ProQinase (Freiburg, Germany)
T10 sequence (P06493 whole entry): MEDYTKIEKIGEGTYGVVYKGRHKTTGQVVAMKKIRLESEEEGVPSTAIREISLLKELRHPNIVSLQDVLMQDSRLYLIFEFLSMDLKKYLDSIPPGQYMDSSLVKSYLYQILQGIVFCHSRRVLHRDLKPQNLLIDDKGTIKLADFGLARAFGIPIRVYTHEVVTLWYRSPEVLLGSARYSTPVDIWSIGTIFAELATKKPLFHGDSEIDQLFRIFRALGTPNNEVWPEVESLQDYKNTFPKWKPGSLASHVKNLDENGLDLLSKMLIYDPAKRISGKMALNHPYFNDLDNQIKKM
T10 sequence (P24864 whole entry partner): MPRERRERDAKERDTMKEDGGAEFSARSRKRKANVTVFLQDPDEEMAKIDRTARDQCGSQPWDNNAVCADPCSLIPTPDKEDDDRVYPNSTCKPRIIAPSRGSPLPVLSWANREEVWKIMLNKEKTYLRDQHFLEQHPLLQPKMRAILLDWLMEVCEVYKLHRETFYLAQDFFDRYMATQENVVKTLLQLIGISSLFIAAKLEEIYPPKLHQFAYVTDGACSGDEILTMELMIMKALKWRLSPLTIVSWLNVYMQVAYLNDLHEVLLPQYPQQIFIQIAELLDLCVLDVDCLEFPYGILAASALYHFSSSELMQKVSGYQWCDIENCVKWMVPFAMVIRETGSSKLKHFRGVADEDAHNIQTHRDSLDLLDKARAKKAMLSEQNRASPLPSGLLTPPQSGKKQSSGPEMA
Description: as §1

ABL1 = biological target: T11, ABL1 (Homo sapiens, UniProt P00519)
T11 construct: purchased ProQinase (Freiburg, Germany)
Description: as §1

MARK2 = biological target: T12, MARK2 (Homo sapiens, UniProt Q7KZI7)
T12 construct: purchased ProQinase (Freiburg, Germany)
Description: as §1

CDK3/CycC = biological target: T13, CDK3/CycC (Homo sapiens, UniProt Q00526)
T13 construct: purchased ProQinase (Freiburg, Germany)
Description: as §1

O=C(Nc1ccc(F)c(Nc2ccc3c(c2)CCCCC3=O)c1)c1cccc(F)c1 [Compound 109]
Residual activity (FGFR2; 1.0E-05 M): 74 % of control | Residual activity (FGFR2; 1.0E-06 M): 97 % of control | Residual activity (PHKG2; 1.0E-05 M): 95 % of control | Residual activity (PHKG2; 1.0E-06 M): 102 % of control | Residual activity (TLK1; 1.0E-05 M): 114 % of control | Residual activity (TLK1; 1.0E-06 M): 103 % of control | Residual activity (FGFR1; 1.0E-05 M): 79 % of control | Residual activity (FGFR1; 1.0E-06 M): 93 % of control | Residual activity (EPHA4; 1.0E-05 M): 90 % of control | Residual activity (EPHA4; 1.0E-06 M): 86 % of control | Residual activity (WNK2; 1.0E-05 M): 96 % of control | Residual activity (WNK2; 1.0E-06 M): 90 % of control | Residual activity (PBK; 1.0E-05 M): 106 % of control | Residual activity (PBK; 1.0E-06 M): 95 % of control | Residual activity (PKN3; 1.0E-05 M): 92 % of control | Residual activity (PKN3; 1.0E-06 M): 91 % of control | Residual activity (BTK; 1.0E-05 M): 91 % of control | Residual activity (BTK; 1.0E-06 M): 99 % of control | Residual activity (CDK1/CycE1; 1.0E-05 M): 98 % of control | Residual activity (CDK1/CycE1; 1.0E-06 M): 96 % of control | Residual activity (ABL1; 1.0E-05 M): 91 % of control | Residual activity (ABL1; 1.0E-06 M): 91 % of control | Residual activity (MARK2; 1.0E-05 M): 99 % of control | Residual activity (MARK2; 1.0E-06 M): 107 % of control | Residual activity (CDK3/CycC; 1.0E-05 M): 96 % of control | Residual activity (CDK3/CycC; 1.0E-06 M): 87 % of control

O=C(Cc1ccccc1)Nc1ccc(F)c(Nc2ccc3c(c2)CCCCC3=O)c1 [Compound 100]
Residual activity (FGFR2; 1.0E-05 M): 51 % of control | Residual activity (FGFR2; 1.0E-06 M): 90 % of control | Residual activity (PHKG2; 1.0E-05 M): 93 % of control | Residual activity (PHKG2; 1.0E-06 M): 96 % of control | Residual activity (TLK1; 1.0E-05 M): 131 % of control | Residual activity (TLK1; 1.0E-06 M): 125 % of control | Residual activity (FGFR1; 1.0E-05 M): 78 % of control | Residual activity (FGFR1; 1.0E-06 M): 93 % of control | Residual activity (EPHA4; 1.0E-05 M): 88 % of control | Residual activity (EPHA4; 1.0E-06 M): 97 % of control | Residual activity (WNK2; 1.0E-05 M): 100 % of control | Residual activity (WNK2; 1.0E-06 M): 95 % of control | Residual activity (PBK; 1.0E-05 M): 93 % of control | Residual activity (PBK; 1.0E-06 M): 128 % of control | Residual activity (PKN3; 1.0E-05 M): 101 % of control | Residual activity (PKN3; 1.0E-06 M): 104 % of control | Residual activity (BTK; 1.0E-05 M): 78 % of control | Residual activity (BTK; 1.0E-06 M): 99 % of control | Residual activity (CDK1/CycE1; 1.0E-05 M): 100 % of control | Residual activity (CDK1/CycE1; 1.0E-06 M): 102 % of control | Residual activity (ABL1; 1.0E-05 M): 88 % of control | Residual activity (ABL1; 1.0E-06 M): 90 % of control | Residual activity (MARK2; 1.0E-05 M): 104 % of control | Residual activity (MARK2; 1.0E-06 M): 103 % of control | Residual activity (CDK3/CycC; 1.0E-05 M): 89 % of control | Residual activity (CDK3/CycC; 1.0E-06 M): 97 % of control
